Experimental data as given in patent US20230373985A1 (Origenis Gmbh, priority 2020, published 2023).

How the values were obtained:
[1] = target: T1, wt human NUAK1, full length (Homo sapiens, UniProt O60285); test: TR-FRET LanthaScreen Eu Kinase Binding Assay, NUAK1; conditions: read-out: IC50, Activity Toward NUAK1
T1 construct: 8 nM wt human NUAK1, full length (ThermoFisher/USA); purchased ThermoFisher
T1 sequence (O60285 1-661): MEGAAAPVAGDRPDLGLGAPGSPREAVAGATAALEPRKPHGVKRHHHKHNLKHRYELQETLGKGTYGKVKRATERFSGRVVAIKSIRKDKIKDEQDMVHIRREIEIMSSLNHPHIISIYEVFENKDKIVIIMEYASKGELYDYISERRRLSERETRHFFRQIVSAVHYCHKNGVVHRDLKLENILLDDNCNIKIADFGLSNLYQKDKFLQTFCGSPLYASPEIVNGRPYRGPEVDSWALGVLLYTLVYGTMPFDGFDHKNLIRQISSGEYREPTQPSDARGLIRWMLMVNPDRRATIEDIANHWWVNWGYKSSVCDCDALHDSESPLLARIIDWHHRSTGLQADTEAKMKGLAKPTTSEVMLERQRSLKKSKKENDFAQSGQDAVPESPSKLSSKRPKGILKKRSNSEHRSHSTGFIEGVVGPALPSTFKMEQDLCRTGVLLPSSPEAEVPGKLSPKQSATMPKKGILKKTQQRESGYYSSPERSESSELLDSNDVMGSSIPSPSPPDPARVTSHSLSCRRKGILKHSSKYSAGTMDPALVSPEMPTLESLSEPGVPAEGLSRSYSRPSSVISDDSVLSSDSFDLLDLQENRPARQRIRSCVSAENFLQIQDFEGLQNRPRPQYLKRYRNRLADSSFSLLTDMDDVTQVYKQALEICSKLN
Method: The basic protocol for TR-FRET LanthaScreen Eu Kinase Binding Assay inhibitor studies were performed as follows. LanthaScreen Kinase Binding Assays (ThermoFisher/USA) to evaluate inhibitors were performed by addition of 5 μL of test compound in corresponding DMSO dilutions/5 μl of kinase/antibody mixture, 5 μL of tracer into 384 well small volume plates. After incubation for 1 hour at room temperature, plates were read. Data analysis of emission ratios was according LanthaScreen Eu Kinase Binding Assay protocol.
Kinase and assay components were adjusted to final concentrations according to kit protocol. For LRRK2: 5 nM wt human LRRK2, catalytic site, or G2019S human LRRK2, catalytic site (ThermoFisher/USA), 2 nM Eu-Anti-GST Antibody, 10 nM Kinase Tracer 236 in 1× Kinase Buffer A. For NUAK1: 8 nM wt human NUAK1, full length (ThermoFisher/USA), 2 nM Eu-Anti-His Antibody, 5 nM Kinase Tracer 236 in 1× Kinase Buffer A.

[2] = target: T2, wt human TYK2, catalytic site (Homo sapiens, UniProt P29597); test: HTRF KinEASE assay, TYK2; assay type: biochemical; conditions: 1 μM ATP; read-out: IC50, Activity Toward TYK2
T2 construct: wt human TYK2, catalytic site; purchased SignalChem
T2 sequence (P29597 897-1176 limits assumed): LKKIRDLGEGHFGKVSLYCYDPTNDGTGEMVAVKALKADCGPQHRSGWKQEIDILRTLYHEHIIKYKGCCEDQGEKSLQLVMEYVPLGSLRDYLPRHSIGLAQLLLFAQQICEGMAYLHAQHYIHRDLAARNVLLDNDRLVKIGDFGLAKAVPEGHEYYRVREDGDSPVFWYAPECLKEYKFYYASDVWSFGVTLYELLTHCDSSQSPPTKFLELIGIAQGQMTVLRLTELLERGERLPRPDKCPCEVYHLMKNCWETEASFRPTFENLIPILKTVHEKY
Procedure, shortened: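 Kinase reaction run at room temperature for at least 30 min: 2 nM TYK2 with 1 μM ATP, or 1 nM JAK2 with 100 μM ATP, each with 1 μM biotin-TK substrate. Phosphorylation detected by HTRF (60 min antibody/XL665) and evaluated from emission ratios.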

[3] = target: T3, G2019S human LRRK2, catalytic site (Homo sapiens, UniProt Q5S007, G2019S); test: TR-FRET LanthaScreen Eu Kinase Binding Assay, LRRK2 G2019S; conditions: LRRK2(G2019); one range stated for wt and G2019; read-out: IC50, Activity Toward LRRK2(G2019)
T3 construct: G2019S human LRRK2, catalytic site; purchased ThermoFisher
Procedure, shortened: (§1)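 Kinase Buffer A holding, as final levels, 8 nM full-length NUAK1, 2 nM Eu-anti-His antibody and 5 nM Tracer 236, or 5 nM LRRK2 catalytic site (wt or G2019S), 2 nM Eu-anti-GST and 10 nM Tracer 236. Compound added, then 1 h at room temperature before TR-FRET ratio readout.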

[4] = target: T4, wt human LRRK2, catalytic site (Homo sapiens, UniProt Q5S007); test: TR-FRET LanthaScreen Eu Kinase Binding Assay, LRRK2 wt; conditions: one range stated for wt and G2019, read-out: IC50, Activity Toward LRRK2(Wt)
T4 construct: 5 nM wt human LRRK2, catalytic site; purchased ThermoFisher
Procedure, shortened: as §1

[5] = target: T5, wt human JAK1, catalytic site (Homo sapiens, UniProt P23458); test: HTRF KinEASE assay, JAK1; assay type: biochemical; conditions: 2.5 μM ATP; read-out: IC50, Activity Toward JAK1
T5 construct: wt human JAK1, catalytic site; purchased ThermoFisher
Procedure, shortened: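 Compounds in DMSO dilution were mixed with kinase, biotin-TK substrate and ATP and reacted for ≥30 min at room temperature. Detection reagents (antibody, streptavidin-XL665) were read 60 min later as HTRF, with emission ratios analysed per KinEASE protocol.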

T5 sequence (P23458 875-1153 limits assumed): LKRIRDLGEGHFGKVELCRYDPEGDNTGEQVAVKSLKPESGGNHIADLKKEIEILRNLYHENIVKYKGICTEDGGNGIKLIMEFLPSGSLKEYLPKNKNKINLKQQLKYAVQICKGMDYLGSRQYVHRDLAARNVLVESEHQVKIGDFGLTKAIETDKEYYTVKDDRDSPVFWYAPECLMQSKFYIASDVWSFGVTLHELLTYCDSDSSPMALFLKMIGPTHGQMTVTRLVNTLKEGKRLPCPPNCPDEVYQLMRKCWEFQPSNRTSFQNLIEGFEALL
T3 sequence (Q5S007 970-2527 G2019S limits assumed): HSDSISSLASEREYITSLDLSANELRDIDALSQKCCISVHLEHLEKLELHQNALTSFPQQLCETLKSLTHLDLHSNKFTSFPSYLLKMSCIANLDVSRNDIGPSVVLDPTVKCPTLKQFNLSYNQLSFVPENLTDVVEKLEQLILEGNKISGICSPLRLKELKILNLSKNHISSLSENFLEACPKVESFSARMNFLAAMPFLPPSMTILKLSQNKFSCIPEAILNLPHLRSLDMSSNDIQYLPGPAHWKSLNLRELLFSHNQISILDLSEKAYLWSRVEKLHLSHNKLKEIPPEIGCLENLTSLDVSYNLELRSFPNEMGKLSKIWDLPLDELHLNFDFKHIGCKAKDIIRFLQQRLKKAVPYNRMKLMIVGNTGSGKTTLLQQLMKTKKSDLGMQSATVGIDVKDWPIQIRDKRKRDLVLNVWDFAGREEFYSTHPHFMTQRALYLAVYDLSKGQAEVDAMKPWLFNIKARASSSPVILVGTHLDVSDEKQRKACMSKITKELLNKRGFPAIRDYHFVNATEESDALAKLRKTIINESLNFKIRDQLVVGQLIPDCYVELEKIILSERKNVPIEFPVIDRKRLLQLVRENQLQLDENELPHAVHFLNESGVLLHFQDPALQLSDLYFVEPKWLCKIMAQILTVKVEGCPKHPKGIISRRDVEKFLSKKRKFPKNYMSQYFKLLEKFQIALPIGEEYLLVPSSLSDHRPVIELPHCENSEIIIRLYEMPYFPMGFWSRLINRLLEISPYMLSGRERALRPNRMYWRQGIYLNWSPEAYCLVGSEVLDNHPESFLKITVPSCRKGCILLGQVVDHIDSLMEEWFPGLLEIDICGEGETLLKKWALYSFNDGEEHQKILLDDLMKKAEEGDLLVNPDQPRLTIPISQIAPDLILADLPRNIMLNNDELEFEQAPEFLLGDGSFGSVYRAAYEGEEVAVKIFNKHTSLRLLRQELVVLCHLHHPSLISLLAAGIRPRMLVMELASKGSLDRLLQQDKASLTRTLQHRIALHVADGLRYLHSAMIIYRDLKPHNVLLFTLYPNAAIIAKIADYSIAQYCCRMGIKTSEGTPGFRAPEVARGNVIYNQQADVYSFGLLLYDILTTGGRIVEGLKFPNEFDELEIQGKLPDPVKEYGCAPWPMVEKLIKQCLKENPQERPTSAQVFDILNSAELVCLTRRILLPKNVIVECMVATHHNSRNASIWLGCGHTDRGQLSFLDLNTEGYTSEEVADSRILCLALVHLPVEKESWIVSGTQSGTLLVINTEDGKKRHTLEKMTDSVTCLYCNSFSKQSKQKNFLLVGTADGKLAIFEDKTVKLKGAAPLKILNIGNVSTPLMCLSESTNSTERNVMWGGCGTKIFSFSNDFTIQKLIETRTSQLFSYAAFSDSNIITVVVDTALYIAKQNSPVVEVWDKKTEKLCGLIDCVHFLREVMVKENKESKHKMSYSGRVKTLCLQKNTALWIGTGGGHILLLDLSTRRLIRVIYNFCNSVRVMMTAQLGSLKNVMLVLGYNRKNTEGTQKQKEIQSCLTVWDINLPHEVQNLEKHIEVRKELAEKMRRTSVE
T4 sequence (Q5S007 970-2527 limits assumed): as the sequence (Q5S007 970-2527 G2019S limits assumed) above, with S1050G counted along it

Structure (SMILES) | IC50 [1] | IC50 [2] | IC50 [3] | IC50 [4] | IC50 [5]
CN(C)CCn1cnnc1-c1ccc(Nc2cn(-c3c(Cl)cccc3Cl)nc2C(N)=O)cc1 [compound 214, 1-(2,6-dichlorophenyl)-4-((4-(4-(2-(dimethylamino)ethyl)-4H-1,2,4-triazol-3-yl)phenyl)amino)-1H-pyrazole-3-carboxamide] | 0.1 to 1 µM | < 0.01 µM |  |  | 0.01 to 0.1 µM
CN1CCC(Oc2ccc(Nc3cn(-c4c(Cl)cccc4Cl)nc3C(N)=O)cc2)CC1 [compound 237, 1-(2,6-dichlorophenyl)-4-((4-((1-methylpiperidin-4-yl)oxy)phenyl)amino)-1H-pyrazole-3-carboxamide] | 0.1 to 1 µM | < 0.01 µM |  |  | 0.1 to 1 µM
CN(C)CCn1ccnc1-c1ccc(Nc2cn(-c3c(Cl)cccc3Cl)nc2C(N)=O)cc1 [compound 251, 1-(2,6-dichlorophenyl)-4-((4-(1-(2-(dimethylamino)ethyl)-1H-imidazol-2-yl)phenyl)amino)-1H-pyrazole-3-carboxamide] | 0.1 to 1 µM | 0.01 to 0.1 µM |  |  | 0.1 to 1 µM
COCCc1ncnn1-c1ccc(Nc2cn(-c3c(Cl)cccc3Cl)nc2C(N)=O)cc1 [compound 327, 1-(2,6-dichlorophenyl)-4-((4-(5-(2-methoxyethyl)-1H-1,2,4-triazol-1-yl)phenyl)amino)-1H-pyrazole-3-carboxamide] | 0.1 to 1 µM | 0.01 to 0.1 µM |  |  | 0.01 to 0.1 µM
NC(=O)c1nn(-c2c(Cl)cccc2Cl)cc1Nc1ccc(C(=O)N2CC[C@H](N3CCCC3)C2)cc1 [compound 332, (S)-4-((4-([1,3′-bipyrrolidine]-1′-carbonyl)phenyl)amino)-1-(2,6-dichlorophenyl)-1H-pyrazole-3-carboxamide] | 0.1 to 1 µM | < 0.01 µM |  |  | 0.1 to 1 µM
NC(=O)c1nn(-c2c(Cl)cccc2Cl)cc1Nc1cnc(C(=O)N2CC[C@@H](F)C2)cn1 [compound 403, (R)-1-(2,6-dichlorophenyl)-4-((5-(3-fluoropyrrolidine-1-carbonyl)pyrazin-2-yl)amino)-1H-pyrazole-3-carboxamide] | 0.1 to 1 µM | 0.1 to 1 µM |  |  | 
NC(=O)c1nn(-c2c(Cl)cccc2Cl)cc1Nc1cn[nH]c1 [compound 407, 4-((1H-pyrazol-4-yl)amino)-1-(2,6-dichlorophenyl)-1H-pyrazole-3-carboxamide] | 0.1 to 1 µM | 0.1 to 1 µM |  |  | 0.1 to 1 µM
NC(=O)c1nn(-c2c(Cl)cccc2Cl)cc1Nc1ccc(OC2CCNCC2)cc1 [compound 424, 1-(2,6-dichlorophenyl)-4-((4-(piperidin-4-yloxy)phenyl)amino)-1H-pyrazole-3-carboxamide] | 0.1 to 1 µM | 0.01 to 0.1 µM |  |  | 0.1 to 1 µM
NC(=O)c1nn(-c2c(Cl)cccc2Cl)cc1Nc1ccc(-c2nnc3cncc(C(F)(F)F)n23)nc1 [compound 472, 1-(2,6-dichlorophenyl)-4-((6-(5-(trifluoromethyl)-[1,2,4]triazolo[4,3-a]pyrazin-3-yl)pyridin-3-yl)amino)-1H-pyrazole-3-carboxamide] |  | 0.01 to 0.1 µM | 0.1 to 1 µM | 0.1 to 1 µM | 0.01 to 0.1 µM

More lines, now with the values ahead:

IC50 [1] | IC50 [2] | IC50 [3] | IC50 [4] | IC50 [5] | Structure (SMILES)
0.1 to 1 µM | 0.1 to 1 µM | 0.1 to 1 µM | 0.1 to 1 µM |  | Cc1cc(Nc2cn(-c3c(F)cccc3F)nc2C(N)=O)ncn1 [compound 4, 1-(2,6-difluorophenyl)-4-((6-methylpyrimidin-4-yl)amino)-1H-pyrazole-3-carboxamide]
0.1 to 1 µM | 0.1 to 1 µM | 0.1 to 1 µM | 0.1 to 1 µM |  | NC(=O)c1nn(-c2c(F)cccc2F)cc1Nc1ccccn1 [compound 7, 1-(2,6-difluorophenyl)-4-(pyridin-2-ylamino)-1H-pyrazole-3-carboxamide]
0.01 to 0.1 µM | 0.1 to 1 µM | 0.1 to 1 µM | 0.1 to 1 µM | 0.1 to 1 µM | Cc1cc(Nc2cn(-c3c(F)cccc3F)nc2C(N)=O)nc(N)n1 [compound 8, 4-((2-amino-6-methylpyrimidin-4-yl)amino)-1-(2,6-difluorophenyl)-1H-pyrazole-3-carboxamide]
0.01 to 0.1 µM | 0.01 to 0.1 µM | 0.1 to 1 µM | 0.1 to 1 µM | 0.1 to 1 µM | NC(=O)c1nn(-c2c(F)cccc2F)cc1Nc1ccc(C(=O)NCC(F)(F)F)cc1 [compound 14, 1-(2,6-difluorophenyl)-4-((4-((2,2,2-trifluoroethyl)carbamoyl)phenyl)amino)-1H-pyrazole-3-carboxamide]
0.1 to 1 µM | 0.01 to 0.1 µM |  |  | 0.1 to 1 µM | Cc1nc2cc(Nc3cn(-c4c(F)cccc4Cl)nc3C(N)=O)ccc2n1C [compound 44, 1-(2-chloro-6-fluorophenyl)-4-((1,2-dimethyl-1H-benzo[d]imidazol-5-yl)amino)-1H-pyrazole-3-carboxamide]
0.1 to 1 µM | < 0.01 µM |  |  | 0.01 to 0.1 µM | CN1CCCN(C(=O)c2ccc(Nc3cn(-c4c(Cl)cccc4Cl)nc3C(N)=O)cc2)CC1 [compound 91, 1-(2,6-dichlorophenyl)-4-((4-(4-methyl-1,4-diazepane-1-carbonyl)phenyl)amino)-1H-pyrazole-3-carboxamide]
0.1 to 1 µM | < 0.01 µM |  |  | 0.01 to 0.1 µM | CN(C)[C@H]1CCN(C(=O)c2ccc(Nc3cn(-c4c(Cl)cccc4Cl)nc3C(N)=O)cc2)C1 [compound 314, (S)-1-(2,6-dichlorophenyl)-4-((4-(3-(dimethylamino)pyrrolidine-1-carbonyl)phenyl)amino)-1H-pyrazole-3-carboxamide]
0.1 to 1 µM | 0.01 to 0.1 µM |  |  | 0.01 to 0.1 µM | NC(=O)c1nn(-c2c(Cl)cccc2Cl)cc1Nc1ccc(C(=O)N2CC[C@H](N)C2)cc1 [compound 319, (S)-4-((4-(3-aminopyrrolidine-1-carbonyl)phenyl)amino)-1-(2,6-dichlorophenyl)-1H-pyrazole-3-carboxamide]
0.1 to 1 µM | < 0.01 µM |  |  | 0.1 to 1 µM | NC(=O)c1nn(-c2c(Cl)cccc2Cl)cc1Nc1ccc(-c2nc(C(F)(F)F)cn2CCO)cc1 [compound 338, 1-(2,6-dichlorophenyl)-4-((4-(1-(2-hydroxyethyl)-4-(trifluoromethyl)-1H-imidazol-2-yl)phenyl)amino)-1H-pyrazole-3-carboxamide]
 | < 0.01 µM | 0.1 to 1 µM | 0.1 to 1 µM | 0.01 to 0.1 µM | CN=S1(=O)CCN(C(=O)c2ccc(Nc3cn(-c4c(Cl)cccc4Cl)nc3C(N)=O)cc2)CC1 [compound 466, 1-(2,6-dichlorophenyl)-4-((4-(1-(methylimino)-1-oxidothiomorpholine-4-carbonyl)phenyl)amino)-1H-pyrazole-3-carboxamide]
